Results on six molecules are retold here after paper PMC6017562, “Aethiopinolones A–E, New Pregnenolone Type Steroids from the East African Basidiomycete Fomitiporia aethiopica” (Molecules : A Journal of Synthetic Chemistry and Natural …, 2018).

The nature of data set [1]: MTT cytotoxicity assay, L929. It counts as cell-based, mouse. As to conditions: mouse, L929 fibroblast cells, 5 days incubation. As for the experimental part:
(§1) In vitro cytotoxicity (IC50) of the pure compounds 1–5 was determined against a panel of mammalian cell lines including mouse fibroblast L929, HeLa (KB-3-1), epidermoid carcinoma cells A431, breast cancer cells MCF-7, prostate cancer cells PC-3 and adenocarcinomic human alveolar basal epithelial cells A549. The cell lines were cultured in DMEM (Gibco, ThermoFisher Scientific, Hilden, Germany) and MCF-7 in RPMI (Lonza, Cologne, Germany) media, all supplemented with 10% of fetal bovine serum (Gibco) under 10% CO2 at 37 °C. The cytotoxicity assay was performed according to the MTT (3-(4,5-dimethylthiazol-2-yl)-2,5 diphenyltetrazolium bromide) method in 96-well microplates (ThermoFisher Scientific). Briefly 60 μL aliquots of serial dilutions from an initial stock of 1 mg/mL in MeOH of the test compounds were added to 120 μL aliquots of a cell suspension (5.0 × 10^4 cells/mL) in 96-well microplates. After 5 days incubation, a MTT assay was performed, and the absorbance measured at 590 nm using an ELISA plate reader (Victor, PerkinElmer, Überlingen, Germany). The concentration at which the growth of cells was inhibited to 50% of the control (IC50) was obtained from the dose response curves. The negative control was methanol.
A general note: Formazan colour is commonly taken as a measure of viable cells.

The nature of data set [2]: MTT cytotoxicity assay, KB3.1. It counts as cell-based, human. As to conditions: human, HeLa (KB-3-1) cells, KB3.1 cells, 5 days incubation. Here is the method:
as §1

Data set [3] can be described thus: MTT cytotoxicity assay, A431. As to conditions: human, A431 epidermoid carcinoma cells, 5 days incubation. It counts as cell-based, human. Here is the method: as §1
Data set [4] is described as follows: MTT cytotoxicity assay, PC-3. As to conditions: human, PC-3 prostate cancer cells, PC-3 cells, 5 days incubation. It counts as cell-based, human. Here is the method: as §1
Data set [5] is described as follows: MTT cytotoxicity assay, SKOV-3. In kind it is cell-based, human. The settings on record: human, SKOV-3 cells, 5 days incubation.
The nature of data set [6]: MTT cytotoxicity assay, MCF-7. In kind it is cell-based, human. The settings on record: human, MCF-7 breast cancer cells, MCF-7 cells, 5 days incubation. As for the experimental part:
as §1

Data set [7] has as its system various mammalian cell lines. Nature of the data set: Cytotoxic effects against the panel of mammalian cell lines (overall statement). In kind it is cell-based. As to conditions: all tested cell lines of Table 3. Here is the method:
as §1

Data set [8] in a line: MTT cytotoxicity assay, A549. As to conditions: human, A549 alveolar basal epithelial adenocarcinoma cells, 5 days incubation. In kind it is cell-based, human. Here is the method: as §1
The subject of a further data set is mouse fibroblast L929. As to the kind of experiment: MTT cytotoxicity assay, L929. In kind it is cell-based. The settings on record: L929 cells, 5 days incubation. As for the experimental part:
as §1

Another data set has as its system HeLa (KB-3-1). Nature of the data set: MTT cytotoxicity assay, KB3.1. It counts as cell-based, human. The settings on record: KB3.1 cells, 5 days incubation. As for the experimental part:
as §1

Data set [9] concerns epidermoid carcinoma cells A431. Nature of the data set: MTT cytotoxicity assay, A431. As to conditions: 5 days incubation. It counts as cell-based, human. Here is the method:
as §1

For data set [10], the system named is adenocarcinomic human alveolar basal epithelial cells A549. As to the kind of experiment: MTT cytotoxicity assay, A549. In kind it is cell-based. The settings on record: 5 days incubation. Here is the method: as §1
For data set [11], the system named is prostate cancer cells PC-3. As to the kind of experiment: MTT cytotoxicity assay, PC-3. It counts as cell-based, human. The settings on record: PC-3 cells, 5 days incubation. As for the experimental part: as §1
The next data set has as its system SKOV-3. Nature of the data set: MTT cytotoxicity assay, SKOV-3. It counts as cell-based, human. The settings on record: SKOV-3 cells, 5 days incubation.
Data set [12] has as its system breast cancer cells MCF-7. As to the kind of experiment: MTT cytotoxicity assay, MCF-7. It counts as cell-based, human. As to conditions: MCF-7 cells, 5 days incubation. As for the experimental part:
as §1

Values after ≈ are worked out from the molar mass of the structure shown. Bounds are passed on as bounds.

With `CC(=O)C1C(O)CC2C3=CC(=O)C4CC(O)CCC4(C)C3(O)CCC21C` (centres unmarked) [Compound 1, Aethiopinolone A], the concentration for half-maximal inhibition (IC50) at 5 days in data set [1] is 28 µg/mL (≈ 77.2 µM); in [2], 19 µg/mL (≈ 52.4 µM); in [3], 22 µg/mL (≈ 60.7 µM); in data set [4], 8 µg/mL (≈ 22.1 µM); in data set [5], 26 µg/mL (≈ 71.7 µM); in data set [6] it was 20 µg/mL (≈ 55.2 µM). Further, in [7], the “Cytotoxic activity against the tested cell lines (in words)” value (“Cytotoxic activity” below) was “strongest activity”.

For `CC(=O)[C@H]1[C@H](O)C[C@H]2C3=CC(=O)[C@H]4C[C@H](O)CC[C@]4(C)[C@@]3(O)CC[C@@]21C` [Compound 2, Aethiopinolone B], the IC50 at 5 days was 45 µg/mL (≈ 124 µM) in [1]; 39 µg/mL (≈ 108 µM) in data set [2]; over 70 µg/mL in [3]; over 70 µg/mL in data set [8]; over 70 µg/mL in [4]; over 70 µg/mL in data set [5]. In [6], this molecule came in with an IC50 at 5 days of over 70 µg/mL.

`CC(=O)C1=CC[C@H]2C3=CC(=O)[C@H]4C[C@@H](O)CC[C@]4(C)[C@@]3(O)CC[C@]12C` [Compound 3, Aethiopinolone C]: the IC50 at 5 days in [1] was 40 µg/mL (≈ 116 µM); in data set [2], 35 µg/mL (≈ 102 µM); in data set [3] it was 27 µg/mL (≈ 78.4 µM); in data set [8] it was 70 µg/mL (≈ 203 µM); in data set [4] it was 45 µg/mL (≈ 131 µM); in data set [5], 38 µg/mL (≈ 110 µM). Further, half-maximal inhibition in data set [6] (IC50 at 5 days) required 18 µg/mL (≈ 52.3 µM). For the same molecule, in data set [7], the “Cytotoxic activity” value is reported as “moderate activity”.

As for `CC(=O)C1=CC[C@H]2C3=CC(=O)[C@H]4C[C@H](O)CC[C@]4(C)[C@@]3(O)CC[C@]12C` [Compound 4, Aethiopinolone D], the IC50 at 5 days came out at 45 µg/mL (≈ 131 µM) in [1]; 39 µg/mL (≈ 113 µM) in data set [2]; 21 µg/mL (≈ 61 µM) in data set [3]; 52 µg/mL (≈ 151 µM) in [8]; 40 µg/mL (≈ 116 µM) in data set [4]; 36 µg/mL (≈ 105 µM) in data set [5]. In data set [6], this molecule registered an IC50 at 5 days of 17 µg/mL (≈ 49.4 µM). The “Cytotoxic activity” value in [7] is “moderate activity”.

`CC(=O)C1=CC[C@H]2C3=CC(=O)[C@H]4CC(=O)CC[C@]4(C)[C@@]3(O)CC[C@]12C` [Compound 5, Aethiopinolone E]: the half-maximal inhibitory concentration (IC50) at 5 days amounted to 40 µg/mL (≈ 117 µM) in data set [1]; 33 µg/mL (≈ 96.4 µM) in data set [2]; 14 µg/mL (≈ 40.9 µM) in data set [3]; 43 µg/mL (≈ 126 µM) in [8]; 39 µg/mL (≈ 114 µM) in [4]; 34 µg/mL (≈ 99.3 µM) in data set [5]. The same molecule had a half-inhibitory concentration (IC50) at 5 days in data set [6] of 16 µg/mL (≈ 46.7 µM).

As for `C/C(=C\c1csc(C)n1)[C@@H]1C[C@@H]2O[C@]2(C)CCC[C@H](C)[C@H](O)[C@@H](C)C(=O)C(C)(C)[C@@H](O)CC(=O)O1` [Epothilon B, reference compound], the “Cytotoxicity IC50” value with mouse fibroblast L929 is 0.0014 µg/mL; in the data set with HeLa (KB-3-1) it was 0.00022 µg/mL; in data set [9], 0.0006 µg/mL; in data set [10], 0.005 µg/mL; in [11], 0.0002 µg/mL; in the data set with SKOV-3, 0.0014 µg/mL. For the same molecule, in data set [12], the “Cytotoxicity IC50” value was found to be 0.0004 µg/mL.

The IC50 is the concentration at which inhibition is half-maximal. Higher therefore signals a need for much substance.
